Drawing on EP4467141A1, “PYRAZOLO-QUINOLINES AS SELECTIVE INHIBITORS OF GENOTOXIC STRESS-INDUCED IKK/NF- KB PATHWAYS FOR CANCER THERAPY” (Max-Delbrück-Centrum für Molekulare Medizin in der …, priority 2023, dated 2024), this text covers inhibition for two molecules.

Holding throughout (assay): Kinase panel study
Holding throughout (format): biochemical
Conditions in all cases: read-out: Percentage of inhibition; for inhibition at 1 µM: 1000nM; for inhibition at 10 µM: 10000nM

For one assay, the target named is T1, SGKL (SGK3) (Homo sapiens, UniProt Q96BR1).
T1 construct: purchased Thermo Fisher Scientific
T1 sequence (Q96BR1 1-496): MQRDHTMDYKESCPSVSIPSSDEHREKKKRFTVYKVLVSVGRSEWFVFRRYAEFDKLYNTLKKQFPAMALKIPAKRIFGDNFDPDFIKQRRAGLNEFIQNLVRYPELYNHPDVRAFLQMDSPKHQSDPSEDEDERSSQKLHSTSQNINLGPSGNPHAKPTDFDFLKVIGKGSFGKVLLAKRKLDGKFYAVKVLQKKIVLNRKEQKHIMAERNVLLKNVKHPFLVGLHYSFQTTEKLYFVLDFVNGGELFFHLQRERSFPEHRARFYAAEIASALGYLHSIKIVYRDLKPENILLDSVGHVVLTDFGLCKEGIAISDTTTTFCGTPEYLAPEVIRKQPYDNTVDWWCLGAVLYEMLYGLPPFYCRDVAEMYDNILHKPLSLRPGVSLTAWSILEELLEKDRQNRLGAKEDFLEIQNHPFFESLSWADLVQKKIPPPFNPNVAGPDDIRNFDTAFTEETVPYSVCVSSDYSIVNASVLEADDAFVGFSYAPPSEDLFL
In a few lines:
(§1)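 Kinase inhibition was determined by a contract provider in cell-free ZLyte or Adapta assays. Results are expressed as % inhibition at 10 or 1 µM.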

Another assay deals with T2, DYRK3 (Homo sapiens, UniProt O43781).
T2 construct: purchased Thermo Fisher Scientific
T2 sequence (O43781 1-588): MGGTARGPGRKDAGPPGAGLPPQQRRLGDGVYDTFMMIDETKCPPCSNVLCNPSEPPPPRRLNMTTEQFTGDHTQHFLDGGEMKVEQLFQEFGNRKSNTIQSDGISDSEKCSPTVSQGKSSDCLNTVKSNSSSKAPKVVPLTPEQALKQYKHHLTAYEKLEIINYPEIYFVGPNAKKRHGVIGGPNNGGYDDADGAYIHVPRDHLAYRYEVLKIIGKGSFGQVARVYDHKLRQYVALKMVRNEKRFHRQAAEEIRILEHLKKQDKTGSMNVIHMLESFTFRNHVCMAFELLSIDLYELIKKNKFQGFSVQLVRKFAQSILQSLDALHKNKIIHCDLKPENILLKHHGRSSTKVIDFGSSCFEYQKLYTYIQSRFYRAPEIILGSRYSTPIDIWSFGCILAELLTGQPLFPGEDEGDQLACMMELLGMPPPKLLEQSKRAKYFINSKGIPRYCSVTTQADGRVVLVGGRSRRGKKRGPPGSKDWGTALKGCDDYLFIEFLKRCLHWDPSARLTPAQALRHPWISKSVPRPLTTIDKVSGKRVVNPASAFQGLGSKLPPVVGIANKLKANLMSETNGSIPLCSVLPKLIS
In a few lines: as §1

The target of a further assay is T3, RPS6KA1 (RSK1) (Homo sapiens, UniProt Q15418).
T3 construct: purchased Thermo Fisher Scientific
In a few lines:
as §1

The target in another assay is T4, HIPK1 (Myak) (Homo sapiens, UniProt Q86Z02).
T4 construct: purchased Thermo Fisher Scientific
In a few lines: as §1

The target in the next assay is T5, PRKCB2 (PKC beta II) (Homo sapiens, UniProt P05771).
T5 construct: purchased Thermo Fisher Scientific
A digest of the protocol: as §1

The target of the next assay is T6, CAMK1 (CaMK1) (Homo sapiens, UniProt Q14012).
T6 construct: purchased Thermo Fisher Scientific
A digest of the protocol:
as §1

The target of a further assay is T7, LRRK2 R1441C (Homo sapiens, UniProt Q5S007, R1441C).
T7 construct: purchased Thermo Fisher Scientific
In a few lines: as §1

T5 sequence (P05771 1-673 isoform P05771-2): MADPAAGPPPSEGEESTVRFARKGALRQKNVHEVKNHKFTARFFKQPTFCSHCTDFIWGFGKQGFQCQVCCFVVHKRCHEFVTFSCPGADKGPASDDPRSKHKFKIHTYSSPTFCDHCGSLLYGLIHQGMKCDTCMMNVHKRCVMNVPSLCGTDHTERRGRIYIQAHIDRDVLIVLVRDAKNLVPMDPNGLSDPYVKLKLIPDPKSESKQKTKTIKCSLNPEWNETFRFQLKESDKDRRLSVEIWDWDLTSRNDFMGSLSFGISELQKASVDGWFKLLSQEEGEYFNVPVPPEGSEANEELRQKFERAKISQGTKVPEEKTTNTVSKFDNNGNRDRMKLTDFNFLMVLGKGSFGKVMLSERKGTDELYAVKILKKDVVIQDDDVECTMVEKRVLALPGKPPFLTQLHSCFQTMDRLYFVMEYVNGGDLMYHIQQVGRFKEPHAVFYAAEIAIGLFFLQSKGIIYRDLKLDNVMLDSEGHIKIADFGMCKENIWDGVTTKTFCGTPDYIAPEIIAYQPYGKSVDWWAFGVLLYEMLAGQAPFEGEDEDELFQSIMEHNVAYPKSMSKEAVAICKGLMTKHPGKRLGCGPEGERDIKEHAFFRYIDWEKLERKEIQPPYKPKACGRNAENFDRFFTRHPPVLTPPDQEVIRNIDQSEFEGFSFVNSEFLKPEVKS
T7 sequence (Q5S007 970-2527 R1441C limits assumed): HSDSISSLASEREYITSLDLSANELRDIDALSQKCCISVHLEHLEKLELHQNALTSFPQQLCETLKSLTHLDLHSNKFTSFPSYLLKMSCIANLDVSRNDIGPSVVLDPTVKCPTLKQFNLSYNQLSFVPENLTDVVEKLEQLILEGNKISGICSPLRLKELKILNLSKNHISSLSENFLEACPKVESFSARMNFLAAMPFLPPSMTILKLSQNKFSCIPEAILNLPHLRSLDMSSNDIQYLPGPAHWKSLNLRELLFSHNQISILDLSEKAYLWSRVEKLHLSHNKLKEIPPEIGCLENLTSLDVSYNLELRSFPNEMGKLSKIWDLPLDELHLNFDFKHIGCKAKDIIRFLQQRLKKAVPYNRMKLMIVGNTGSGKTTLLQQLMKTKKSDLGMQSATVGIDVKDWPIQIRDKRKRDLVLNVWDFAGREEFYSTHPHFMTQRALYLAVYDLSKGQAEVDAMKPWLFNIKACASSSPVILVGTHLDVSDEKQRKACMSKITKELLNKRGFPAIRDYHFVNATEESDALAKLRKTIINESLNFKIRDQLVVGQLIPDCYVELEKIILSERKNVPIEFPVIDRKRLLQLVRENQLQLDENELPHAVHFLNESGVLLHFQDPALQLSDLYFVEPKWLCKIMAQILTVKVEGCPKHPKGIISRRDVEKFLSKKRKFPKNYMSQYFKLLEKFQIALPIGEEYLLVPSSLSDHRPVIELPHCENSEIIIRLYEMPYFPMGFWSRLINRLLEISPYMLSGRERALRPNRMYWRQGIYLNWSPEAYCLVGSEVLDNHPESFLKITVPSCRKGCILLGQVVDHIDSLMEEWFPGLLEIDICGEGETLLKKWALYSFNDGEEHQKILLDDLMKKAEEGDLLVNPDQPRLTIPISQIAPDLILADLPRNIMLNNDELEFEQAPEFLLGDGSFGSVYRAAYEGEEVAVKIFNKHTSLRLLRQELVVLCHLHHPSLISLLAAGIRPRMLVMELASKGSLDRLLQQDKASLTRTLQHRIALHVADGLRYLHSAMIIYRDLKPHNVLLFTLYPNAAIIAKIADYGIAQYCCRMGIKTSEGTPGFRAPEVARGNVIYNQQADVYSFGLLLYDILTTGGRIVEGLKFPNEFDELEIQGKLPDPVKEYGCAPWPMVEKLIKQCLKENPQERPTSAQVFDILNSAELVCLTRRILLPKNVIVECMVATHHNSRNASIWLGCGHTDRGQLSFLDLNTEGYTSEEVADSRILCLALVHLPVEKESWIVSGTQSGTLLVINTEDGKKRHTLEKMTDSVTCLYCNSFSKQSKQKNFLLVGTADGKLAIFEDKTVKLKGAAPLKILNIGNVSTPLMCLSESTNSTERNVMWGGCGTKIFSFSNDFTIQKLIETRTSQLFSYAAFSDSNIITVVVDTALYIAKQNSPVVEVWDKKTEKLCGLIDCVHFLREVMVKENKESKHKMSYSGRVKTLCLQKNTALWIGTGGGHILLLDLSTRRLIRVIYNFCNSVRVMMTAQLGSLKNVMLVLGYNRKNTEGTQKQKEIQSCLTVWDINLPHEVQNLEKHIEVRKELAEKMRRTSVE
T4 sequence (Q86Z02 whole entry): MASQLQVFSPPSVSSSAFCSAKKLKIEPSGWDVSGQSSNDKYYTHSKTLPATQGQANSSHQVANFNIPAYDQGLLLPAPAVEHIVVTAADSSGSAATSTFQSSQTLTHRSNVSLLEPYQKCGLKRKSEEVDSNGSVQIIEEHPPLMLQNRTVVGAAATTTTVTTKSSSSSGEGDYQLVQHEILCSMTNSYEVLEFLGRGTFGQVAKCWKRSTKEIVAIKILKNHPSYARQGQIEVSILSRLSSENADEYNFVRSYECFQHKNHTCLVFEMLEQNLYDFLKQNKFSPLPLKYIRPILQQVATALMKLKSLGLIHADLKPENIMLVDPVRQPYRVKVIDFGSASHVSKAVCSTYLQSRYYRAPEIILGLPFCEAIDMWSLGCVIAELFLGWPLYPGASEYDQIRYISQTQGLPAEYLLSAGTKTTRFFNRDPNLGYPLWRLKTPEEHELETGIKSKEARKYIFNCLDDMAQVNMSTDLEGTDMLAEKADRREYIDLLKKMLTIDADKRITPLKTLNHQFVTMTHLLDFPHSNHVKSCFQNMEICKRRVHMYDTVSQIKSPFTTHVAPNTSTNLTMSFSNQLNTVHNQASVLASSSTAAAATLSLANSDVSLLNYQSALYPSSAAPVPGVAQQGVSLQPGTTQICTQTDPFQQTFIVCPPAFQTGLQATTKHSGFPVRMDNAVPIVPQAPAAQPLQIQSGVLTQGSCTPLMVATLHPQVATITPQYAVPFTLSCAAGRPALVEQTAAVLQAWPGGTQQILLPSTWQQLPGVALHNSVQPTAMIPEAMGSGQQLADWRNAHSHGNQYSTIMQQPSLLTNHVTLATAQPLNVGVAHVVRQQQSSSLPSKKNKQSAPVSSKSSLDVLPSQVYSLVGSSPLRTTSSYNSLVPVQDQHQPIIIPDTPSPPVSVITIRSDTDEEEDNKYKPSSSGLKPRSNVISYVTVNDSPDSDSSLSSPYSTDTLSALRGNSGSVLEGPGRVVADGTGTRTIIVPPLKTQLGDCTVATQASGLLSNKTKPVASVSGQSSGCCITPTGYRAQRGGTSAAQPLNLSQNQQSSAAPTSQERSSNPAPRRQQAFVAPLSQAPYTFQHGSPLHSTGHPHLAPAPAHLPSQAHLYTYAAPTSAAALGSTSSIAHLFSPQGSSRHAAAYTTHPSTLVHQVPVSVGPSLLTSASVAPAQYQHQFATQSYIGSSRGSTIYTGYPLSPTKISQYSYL
T3 sequence (Q15418 whole entry): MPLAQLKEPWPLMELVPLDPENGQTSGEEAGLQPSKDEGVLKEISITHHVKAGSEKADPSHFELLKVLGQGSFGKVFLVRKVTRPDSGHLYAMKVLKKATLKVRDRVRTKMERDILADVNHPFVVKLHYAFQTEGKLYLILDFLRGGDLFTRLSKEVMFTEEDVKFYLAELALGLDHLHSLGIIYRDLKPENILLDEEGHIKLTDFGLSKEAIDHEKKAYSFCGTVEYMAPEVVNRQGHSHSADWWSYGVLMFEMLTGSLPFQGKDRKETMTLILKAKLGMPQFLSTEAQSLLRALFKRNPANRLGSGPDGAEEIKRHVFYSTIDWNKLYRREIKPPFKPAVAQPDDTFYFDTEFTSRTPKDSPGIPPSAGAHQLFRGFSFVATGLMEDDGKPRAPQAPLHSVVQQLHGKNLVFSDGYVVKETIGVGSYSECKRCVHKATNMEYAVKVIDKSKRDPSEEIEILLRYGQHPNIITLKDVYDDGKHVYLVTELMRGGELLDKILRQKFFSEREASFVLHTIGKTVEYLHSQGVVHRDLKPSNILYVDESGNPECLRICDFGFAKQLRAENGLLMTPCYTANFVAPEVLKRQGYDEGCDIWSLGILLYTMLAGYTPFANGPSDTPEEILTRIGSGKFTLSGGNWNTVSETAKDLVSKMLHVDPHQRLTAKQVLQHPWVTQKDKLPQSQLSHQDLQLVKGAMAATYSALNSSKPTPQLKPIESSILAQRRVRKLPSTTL

With `COc1ccc2c(c1OC)c(=O)n1c3ccc(O)cc3c3ccnc2c31` [MW01, 5-Hydroxy-10,11-dimethoxy-9H-benzo[c]indolo[3,2,1-ij][1,5]naphthyridin-9-one], the inhibition at 1 µM at SGKL (SGK3) is 12%; at DYRK3, 17%; on RPS6KA1 (RSK1), 12%; at HIPK1 (Myak), 21%; on PRKCB2 (PKC beta II), 11%; at CAMK1 (CaMK1), -12%. The inhibition at 1 µM on LRRK2 R1441C was determined as 83%. Moreover, the inhibition at 10 µM at SGKL (SGK3) is 10%; at DYRK3 it was 43%; at RPS6KA1 (RSK1), 19%; on HIPK1 (Myak), 47%; at PRKCB2 (PKC beta II), 14%; on CAMK1 (CaMK1) it was -2%. Also, the inhibition at 10 µM on LRRK2 R1441C is 86%.

In the case of `COc1ccc2cc3c(N)nn(C(=O)c4cccc(N(C)C)c4)c3nc2c1` [MW05, (3-Amino-7-methoxypyrazolo[3,4-b]quinolin-1-yl)-[3-(dimethylamino)phenyl]methanone], the inhibition at 1 µM at SGKL (SGK3) was 8%; at DYRK3 it was 5%; at RPS6KA1 (RSK1), 10%; on HIPK1 (Myak), -4%; on PRKCB2 (PKC beta II), 9%; on CAMK1 (CaMK1) it was -11%. In addition, the inhibition at 1 µM on LRRK2 R1441C was -2%. The inhibition at 10 µM on SGKL (SGK3) was 6%; at DYRK3, 7%; on RPS6KA1 (RSK1), 3%; at HIPK1 (Myak), -6%; at PRKCB2 (PKC beta II), -5%; on CAMK1 (CaMK1), -5%. For the same molecule, on LRRK2 R1441C, the inhibition at 10 µM was found to be 3%.
